Measured values taken from patent publication US10611729B2, “Farnesoid X receptor antagonists” (City of Hope, priority 2014, dated 2020).

Tests used:
FXR [1] = biological target: T1, FXR (Homo sapiens, UniProt Q96RI1); test: GeneBLAzer FXR cell-based antagonistic assay (in presence of 400 nM GW4064); parameters: the Gal4 DBD was fused to the LBD of FXR in this assay; host or cells: GeneBLAzer FXR-UAS-bla HEK 293T cells
T1 sequence (Q96RI1 262-486 limits assumed): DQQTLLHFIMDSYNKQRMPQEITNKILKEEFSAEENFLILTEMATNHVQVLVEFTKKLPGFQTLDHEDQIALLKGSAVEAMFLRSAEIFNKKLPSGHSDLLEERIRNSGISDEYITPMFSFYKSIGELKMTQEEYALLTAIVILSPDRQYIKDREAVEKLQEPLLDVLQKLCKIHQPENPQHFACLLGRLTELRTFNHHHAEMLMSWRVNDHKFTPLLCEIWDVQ
Method: A GeneBLAzer FXR cell-based assay was used to investigate the cellular activities of the 1,3,4-trisubstituted-pyrazol-4-carboxamide analogs. The assay detects the levels of a […] reporter controlled by a promoter containing the binding site of the DNA binding domain (DBD) of the GAL4 transcription factor; the Gal4 DBD was fused to the LBD of FXR in this assay.^35
(§1) FXR transactivation assays were performed using GeneBLAzer FXR-UAS-bla HEK 293T cells (Invitrogen). Cells were maintained according to the manufacturer's instructions. […] Plates were then incubated in dark for 90 min at room temperature before measuring the fluorescent emissions at 460 nm and 535 nm (using excitation at 400 nm) with an Envision plate reader with bottom read capacity. After background signal subtraction for individual emission channels, emission signals at 460 and 535 nm from each well were used to determine the ratio of 460 nm/535 nm. […] The % activation was calculated using equation 2.
The % inhibition was calculated using equation 3.

[2] = test system: GeneBLAzer FXR-UAS-bla HEK 293T cells
Method: To examine if certain chemical antagonistic effect was caused by cytotoxicity, the same GeneBLAzer FXR cells were used to perform cytotoxicity assay. This assay was set up like the FXR agonistic assay, with the exception of signal reading. Instead of detecting the reporter activities, CellTiter-Glo® assay was used to detect cell viability. DMSO with cells or without cells group were served as negative (0% Inhibition) or positive (100% Inhibition), respectively.
Cytotoxicity assays were performed side-by-side with the FXR agonistic assay using GeneBLAzer FXR-UAS-bla HEK 293T cells with CellTiter-Glo® Luminescent Cell Viability Assay reagent (Promega). Briefly, cells were maintained in DMEM supplemented with 10% dialyzed FBS, 0.1 mM non-essential amino acids, 25 mM HEPES, 100 μg/ml of hygromycin B, 100 μg/ml of zeocin, 100 units/ml penicillin and 100 μg/ml streptomycin in regular tissue culture flasks. […] As a positive control, the wells in column 24 of each plate were filled with 30 μL assay medium along with 0.5% DMSO. The final DMSO concentration was 0.5% in each assay well. After a 16 h incubation in a cell culture incubator at 37° C., the cell plates were cooled at room temperature for 20 min and then CellTiter-Glo® reagent 20 μl/well was added followed by an incubation for 20 min in the dark to allow the development of optimal luminescence signal. The luminescence signal from each well in plates was collected with an Envision plate reader equipped with Ultra-sensitive Luminescence detector. The DMSO group and no cell group served as negative (0% activation) and positive (100% activation) controls, respectively. The % inhibition was calculated using equation 4 below.

FXR [3] = biological target: T1, FXR; test: GeneBLAzer FXR cell-based agonistic assay; parameters: the Gal4 DBD was fused to the LBD of FXR in this assay; host or cells: GeneBLAzer FXR-UAS-bla HEK 293T cells; details: without GW4064, 16 h
Method: The reporter assays were performed after a16 h incubation.
as §1

FXR [4] = biological target: T1, FXR; test: FXR TR-FRET binding assay (DY246 fluorescent probe)
Method: The FXR TR-FRET binding assay was performed as previously described^23 with modifications. […] The plate was spun down after a brief shake and incubated at room temperature for 20 min. The TR-FRET emission signals at 520 nm and 490 nm for each well was then collected using a PHERAstar plate reader (BMG LABTECH, Cary, N.C.) with an excitation wavelength of 337 nm, 100-μs delay time, and 200-μs integration time. The 520 nm/490 nm ratio from each well was then calculated. […] The % inhibition of tested chemicals at given concentration was calculated based on negative and positive controls using equation 1.

FXR antagonistic activity, SAR statement in words (FXR [1]): enhanced antagonistic activity | fold more potent than Z26476908 in antagonistic assay (FXR [1]; ratio of IC50 values): 4.59 fold | inhibition at 40 µM (FXR [1]; read-out: GB FXR Cell Anta. % Inh.): 98.9 ± 4.3% | IC50 (FXR [1]; with 400 nM GW4064, read-out: GB FXR Cell Anta. IC50): 0.469 ± 0.0084 µM | FXR agonistic activity (FXR [3]): no FXR agonistic activity | inhibition at 0.164 µM (FXR [4]; at 164 nM, read-out: FXR TR-FRET Binding % Inh.): 130 ± 5.4% | IC50 (FXR [4]; mean ± SE): 0.0075 µM | fold more potent than Z26476908 in FXR TR-FRET binding assay (FXR [4]; ratio of IC50 values): 5.26 fold
Compound: COc1cccc(Cn2cc(C(=O)Nc3ccc(C)c(S(=O)(=O)N4CCOCC4)c3)c(-c3ccc(C)cc3)n2)c1 [Compound 4j, 1-(3-Methoxybenzyl)-N-(4-methyl-3-(morpholinosulfonyl)phenyl)-3-(p-tolyl)-1H-pyrazole-4-carboxamide]
cytotoxicity [2]: no cytotoxicity
